Counter-ions that a name gives are not always drawn. ± gives the standard deviation of the averaged measurements.
Tested on: SYO-1
Experiment: relative viability vs DMSO control (72 h) (fraction); higher = more viable cells
Outline: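 ATPLite readings, expressed as percent growth and averaged over up to triplicate wells, provided relative viability. Before reading, sarcoma cell lines seeded in 384-well plates to reach 80–90% confluence received 2.5 µl of serially diluted compound after 24 h, from source plates of 10 mM to 0.0002 mM. Plates were held 72 h at 37 °C, 5% CO2, with 0.1% DMSO as vehicle and a 5 µM positive control. The data were rescaled to 1 for full and 0 for none.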

Compound	relative viability (0.00017 µM)	relative viability (0.00051 µM)	relative viability (0.00152 µM)	relative viability (0.00457 µM)	relative viability (0.01372 µM)	relative viability (0.04115 µM)	relative viability (0.1235 µM)	relative viability (0.3704 µM)	relative viability (1.111 µM)	relative viability (3.333 µM)	relative viability (10 µM)	relative viability (2 pM)	relative viability (5 pM)	relative viability (15 pM)	relative viability (50 pM)	relative viability (0.00014 µM)	relative viability (0.00041 µM)	relative viability (0.0012 µM)	relative viability (0.0037 µM)	relative viability (0.011 µM)	relative viability (200 fM)	relative viability (600 fM)
Nc1cc(C(F)(F)F)c(-c2cc(N3CCOCC3)nc(N3CCOCC3)n2)cn1 [Buparlisib]	0.933 ± 0.025	0.939 ± 0.011	0.935 ± 0.028	0.931 ± 0.022	0.894 ± 0.043	0.878 ± 0.066	0.81 ± 0.075	0.739 ± 0.052	0.456 ± 0.0064	0.159 ± 0.0096	0.136 ± 0.005											
CC(C)NC(=O)C1CCC(n2c(NC(=O)c3ccc(F)cc3)nc3ccc(CN4CCC(C(C)(C)O)CC4)cc32)CC1 (stereo not given) [Belizatinib]	0.993 ± 0.062	0.983 ± 0.019	0.983 ± 0.055	1 ± 0.069	0.96 ± 0.03	0.967 ± 0.044	0.902 ± 0.052	0.798 ± 0.046	0.639 ± 0.046	0.336 ± 0.018	0.155 ± 0.03											
CC1(C)CNc2cc(NC(=O)c3cccnc3NCc3ccncc3)ccc21 [Motesanib]	0.962 ± 0.012	0.979 ± 0.043	0.996 ± 0.05	0.974 ± 0.043	0.973 ± 0.025	0.914 ± 0.036	0.866 ± 0.029	0.777 ± 0.054	0.724 ± 0.021	0.648 ± 0.016	0.494 ± 0.019											
CC(=O)Nc1cccc(-n2c(=O)n(C3CC3)c(=O)c3c(Nc4ccc(I)cc4F)n(C)c(=O)c(C)c32)c1 [Trametinib]	0.997 ± 0.025	0.983 ± 0.057	0.925 ± 0.031	0.889 ± 0.034	0.865 ± 0.027	0.832 ± 0.056	0.765 ± 0.05	0.735 ± 0.038	0.687 ± 0.061	0.687 ± 0.037	0.671 ± 0.048											
COc1cc2c(cc1O)CCN[C@]21CS[C@@H]2c3c(OC(C)=O)c(C)c4c(c3[C@H](COC1=O)N1[C@@H]2[C@H]2c3c(cc(C)c(OC)c3O)C[C@@H]([C@@H]1O)N2C)OCO4 [Trabectedin]												0.489 ± 0.027	0.422 ± 0.039	0.299 ± 0.027	0.194 ± 0.13	0.0855 ± 0.18	0.0855 ± 0.18	0.26 ± 0.031	0.315 ± 0.0091	0.312 ± 0.02	0.4804 ± 0.002	0.512 ± 0.024
CN1CCN(c2ccc3nc(-c4c(N)c5c(F)cccc5[nH]c4=O)[nH]c3c2)CC1 [Dovitinib]	1.04 ± 0.049	1.038 ± 0.0075	0.992 ± 0.037	0.998 ± 0.03	0.974 ± 0.014	0.927 ± 0.035	0.833 ± 0.0092	0.556 ± 0.012	0.388 ± 0.025	0.17 ± 0.023	-0.0198 ± 0.0062											
C[C@@H]1COCCN1c1cc(-c2ccnn2C)c2ccnc(-c3ccn[nH]3)c2n1	0.9163 ± 0.0052	0.928 ± 0.028	0.911 ± 0.043	0.903 ± 0.06	0.799 ± 0.07	0.627 ± 0.044	0.415 ± 0.03	0.286 ± 0.018	0.199 ± 0.0027	0.116 ± 0.0028	0.0976 ± 0.0066											
Cn1cc(-c2cc3c(N4CCN(c5ncc([C@@](C)(N)c6ccc(F)cc6)cn5)CC4)ncnn3c2)cn1 [Avapritinib]	0.92 ± 0.012	0.898 ± 0.031	0.882 ± 0.057	0.844 ± 0.087	0.807 ± 0.1	0.718 ± 0.054	0.629 ± 0.053	0.568 ± 0.03	0.534 ± 0.059	0.439 ± 0.039	0.319 ± 0.023											
C[C@]1(O)C[C@@H](c2nc(-c3ccc4ccc(-c5ccccc5)nc4c3)c3c(N)nccn32)C1 [Linsitinib]	1.01 ± 0.043	1.01 ± 0.013	0.97 ± 0.046	0.969 ± 0.018	0.922 ± 0.035	0.87 ± 0.083	0.857 ± 0.035	0.823 ± 0.012	0.833 ± 0.04	0.734 ± 0.025	0.57 ± 0.028											
Cc1nc(NC(=O)N2CCC[C@H]2C(N)=O)sc1-c1ccnc(C(C)(C)C(F)(F)F)c1 [Alpelisib]	0.975 ± 0.071	0.944 ± 0.068	0.93 ± 0.049	0.919 ± 0.031	0.85 ± 0.099	0.805 ± 0.095	0.735 ± 0.1	0.68 ± 0.11	0.633 ± 0.063	0.6 ± 0.019	0.5521 ± 0.0025											
COc1cccc2c1C(=O)c1c(O)c3c(c(O)c1C2=O)C[C@@](O)(C(=O)CO)C[C@@H]3O[C@H]1C[C@H](N)[C@H](O)[C@H](C)O1 [Doxorubicin Hydrochloride]	0.967 ± 0.064	0.938 ± 0.048	0.899 ± 0.054	0.818 ± 0.06	0.549 ± 0.038	0.29 ± 0.025	0.175 ± 0.035	0.127 ± 0.015	0.0941 ± 0.01	0.0937 ± 0.025	0.0765 ± 0.011											
CNC(=O)c1ccc(-c2cnc3ncc(Cc4ccc5ncccc5c4)n3n2)cc1F [Capmatinib]	0.956 ± 0.039	0.962 ± 0.044	0.966 ± 0.028	0.968 ± 0.015	0.97 ± 0.03	0.961 ± 0.042	0.97 ± 0.033	0.967 ± 0.026	0.994 ± 0.023	1.03 ± 0.03	1.01 ± 0.067											
Cc1ccc(NC(=O)c2ccc(CN3CCN(C)CC3)cc2)cc1Nc1nc(-c2cccnc2)cs1 [Masitinib]	1.04 ± 0.023	1.02 ± 0.02	1.01 ± 0.027	1.01 ± 0.026	0.974 ± 0.026	0.916 ± 0.039	0.801 ± 0.021	0.676 ± 0.032	0.553 ± 0.038	0.242 ± 0.033	-0.0235 ± 0.0061											
C[C@@H](c1ccc2nccn2c1)n1nnc2ncc(-c3cnn(C)c3)nc21 [Volitinib]	0.96 ± 0.038	0.999 ± 0.065	1 ± 0.025	0.979 ± 0.03	0.985 ± 0.024	0.992 ± 0.032	1.01 ± 0.087	0.98 ± 0.051	0.996 ± 0.058	0.977 ± 0.085	1.03 ± 0.047											
CC(C)(C)c1cc(NC(=O)Nc2ccc(-c3cn4c(n3)sc3cc(OCCN5CCOCC5)ccc34)cc2)no1 [Quizartinib]	0.978 ± 0.017	0.963 ± 0.02	0.973 ± 0.044	0.943 ± 0.035	0.935 ± 0.034	0.9229 ± 0.0014	0.873 ± 0.015	0.715 ± 0.043	0.67 ± 0.046	0.646 ± 0.034	0.627 ± 0.044											

— the supplement of paper PMC10883282
